Tested on: human RS virus A2 strain
Assay: In vitro test for anti-RS virus proliferation inhibitory activity (quantitative RT-PCR of RS virus RNA copy number in infected Vero cells)
Format: cell-based
Details: 72 h; Vero cells infected with human RS virus A2 strain, 3 days of incubation, RS virus N gene RNA copy number by quantitative RT-PCR; read-out: Anti-RS virus Activity
Method in brief: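 Vero cells infected with RSV A2 (1.7×10^4 TCID50/mL in inoculum mix) with compound in 10% FCS EMEM, 3 days at 37 °C, 5% CO2. Lysate viral N-gene RNA quantified by one-step SYBR qRT-PCR; copy number by comparative Ct relative to untreated infected cells.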

IC50 [µM]	SMILES
< 10	O=C(N1CCC[C@H]1c1nc(CCCc2ccccc2)no1)C(F)(F)F [1C′, 3-(3-phenylpropyl)-5-[(2S)-1-trifluoroacetylpyrrolidin-2-yl]-1,2,4-oxadiazole]
10 to 50	O=S(=O)(C1CCCCC1)N1C[C@H](O)C[C@H]1c1nc(CCCc2ccccc2)no1 [Compound 3B, 3-(3-phenylpropyl)-5-[(2S,4R)-1-cyclohexylsulfonyl-4-hydroxypyrrolidin-2-yl]-1,2,4-oxadiazole]
> 50	CC(C)CS(=O)(=O)N1C[C@H](O)C[C@H]1c1nc(CCCc2ccccc2)no1 [Compound 3A, 3-(3-phenylpropyl)-5-[(2S,4R)-4-hydroxy-1-isobutylsulfonylpyrrolidin-2-yl]-1,2,4-oxadiazole]
10 to 50	O=S(=O)(C1CCCCC1)N1CCC[C@H]1c1nc(CCCc2ccccc2)no1 [Compound 1B, 3-(3-phenylpropyl)-5-[(2S)-1-cyclohexylsulfonylpyrrolidin-2-yl]-1,2,4-oxadiazole]
10 to 50	O=S(=O)(Cc1ccccc1)N1C[C@H](O)C[C@H]1c1nc(CCCc2ccccc2)no1 [Compound 3E, 3-(3-phenylpropyl)-5-[(2S,4R)-1-benzylsulfonyl-4-hydroxypyrrolidin-2-yl]-1,2,4-oxadiazole]

SMILES	IC50 [µM]
CC(C)(C)OC(=O)N1C[C@H](O)C[C@H]1c1nc(CCCc2ccccc2)no1 [Compound 3-1, 3-(3-phenylpropyl)-5-[(2S,4R)-1-tert-butoxycarbonyl-4-hydroxypyrrolidin-2-yl]-1,2,4-oxadiazole]	> 50
CC(C)(C)OC(=O)N1CCC[C@H]1c1nc(CCCc2ccccc2)no1 [Compound 1-1, 3-(3-phenylpropyl)-5-[(2S)-1-tert-butoxycarbonylpyrrolidin-2-yl]-1,2,4-oxadiazole]	> 50

Same assay, conditions: 72 h; Vero cells infected with human RS virus A2 strain, 3 days of incubation, RS virus RNA copy number by quantitative RT-PCR; read-out: Anti-RS virus Activity

SMILES	IC50 [µM]
COc1ccc(S(=O)(=O)N2CC3(CC3)C[C@H]2c2nc(CCCc3ccccc3)no2)cc1 [Compound 5AI, (S)-5-(5-((4-methoxyphenyl)sulfonyl)-5-azabicyclo[2.4]heptan-6-yl)-3-(3-phenylpropyl)-1,2,4-oxadiazole]	10 to 50
O=S(=O)(N1CCOCC1)N1CCCC[C@H]1c1nc(CCCc2ccccc2)no1 [Compound 2AE, (S)-4-((2-(3-(3-phenylpropyl)-1,2,4-oxadiazol-5-yl)piperidin-1-yl)sulfonyl)morpholine]	< 10
c1ccc(CCCc2noc([C@@H]3CCCCN3CC3CCCCC3)n2)cc1 [Compound 2U, (S)-5-(1-(cyclohexylmethyl)piperidin-2-yl)-3-(3-phenylpropyl)-1,2,4-oxadiazole]	< 10
CC(C)(C)OC(=O)N1CCC(S(=O)(=O)N2CC3(CC3)C[C@H]2c2nc(CCCc3ccccc3)no2)CC1 [Compound 5AO, tert-buthyl (S)-4-((6-(3-(3-phenylpropyl)-1,2,4-oxadiazole-5-yl)-5-azaspiro[2.4]heptan-5-yl)sulfonyl)piperidin-1-carboxylate]	< 10
CCN1CCCC[C@H]1c1nc(CCCc2ccccc2)no1 [Compound 2Z, (S)-5-(1-ethylpiperidin-2-yl)-3-(3-phenylpropyl)-1,2,4-oxadiazole]	10 to 50
O=S(=O)(c1ccccc1)N1CC2(CC2)C[C@H]1c1nc(CCCc2ccccc2)no1 [Compound 5D, 3-(3-phenylpropyl)-5-{(6S)-5-benzenesulfonyl-5-azaspiro[2.4]hept-6-yl}-1,2,4-oxadiazole]	> 50
CC(C)(C)OC(=O)N1C[C@H](c2ccccc2)C[C@H]1c1nc(CCCCc2ccccc2)no1 [Compound C4-7-1, Tert-butyl (2S,4S)-4-phenyl-2-(3-(4-phenylbutyl)-1,2,4-oxadiazol-5-yl)pyrrolidine-1-carboxylate]	< 10
O=C(Cc1ccccc1)N1CCCC[C@H]1c1nc(CCCc2ccccc2)no1 [Compound 2P, (S)-2-Phenyl-1-(2-(3-(3-phenylpropyl)-1,2,4-oxadiazol-5-yl)piperidin-1-yl)ethan-1-one]	< 10
CC(C)(C)OC(=O)N1CCC(CS(=O)(=O)N2CC3(CC3)C[C@H]2c2nc(CCCc3ccccc3)no2)CC1 [Compound 5AN, tert-buthyl (S)-4-(((6-(3-(3-phenylpropyl)-1,2,4-oxadiazole-5-yl)-5-azaspiro[2.4]heptan-5-yl)sulfonyl)methyl)piperidin-1-carboxylate]	< 10
O=C(OCc1ccccc1)N1CCC[C@H]1c1nc(CCCc2ccccc2)no1 [Compound 1J, Benzyl (S)-2-(3-(3-phenylpropyl)-1,2,4-oxadiazol-5-yl) pyrrolidine-1-carboxylate]	< 10
c1ccc(CCCc2noc([C@@H]3CCCCN3Cc3ccccc3)n2)cc1 [Compound 2AA, (S)-5-(1-benzylpiperidin-2-yl)-3-(3-phenylpropyl)-1,2,4-oxadiazole]	10 to 50
CC(C)(C)OC(=O)N1CCCC[C@H]1c1noc(CCCc2ccccc2)n1 [Compound C3-16-1, Tert-butyl (S)-2-(5-(3-phenylpropyl)-1,2,4-oxadiazol-3-yl) piperidine-1-carboxylate]	< 10

Results, then the compound that gave them:

IC50 [µM]	SMILES
10 to 50	N#C[C@H]1C[C@@H](c2nc(CCCc3ccccc3)no2)N(S(=O)(=O)c2ccc(F)cc2)C1 [Compound 41AJ, (3S,5S)-1-((4-fluorophenyl)sulfonyl)-5-(3-(3-phenylpropyl)-1,2,4-oxadiazol-5-yl)pyrrolidine-3-carbonitrile]
< 10	CC(C)(C)OC(=O)N1CCCC[C@H]1c1nnc(CCc2ccccc2)o1 [Compound 17-1, Tert-butyl (S)-2-(5-phenethyl-1,3,4-oxadiazol-2-yl) piperidine-1-carboxylate]
> 50	CC(C)CS(=O)(=O)N1CCC[C@H]1c1nc(CCc2ccccc2)no1 [Compound 9A, 3-(2-phenylethyl)-5-[(2S)-1-isobutylsulfonylpyrrolidin-2-yl]-1,2,4-oxadiazole]
< 10	O=S(=O)(c1ccc(F)cc1)N1C[C@H](F)C[C@H]1c1nc(CCCc2ccccc2)no1 [Compound 8AJ, 5-((2S,4R)-4-fluoro-1-((4-fluorophenyl)sulfonyl)pyrrolidin-2-yl)-3-(3-phenylpropyl)-1,2,4-oxadiazole]
< 10	CC(C)(C)OC(=O)N1CC(CS(=O)(=O)N2CC(CC3CCC3)CC2c2nc(CCCc3ccccc3)no2)C1 (stereo not drawn) [Compound 6AM, tert-buthyl 3-(((4-(cyclobuthylmethyl)-2-(3-(3-phenylpropyl)-1,2,4-oxadiazole-5-yl)pyrrolidin-1-yl)sulfonyl)methyl)azetidin-1-carboxylate]
10 to 50	CC(C)(C)OC(=O)NCc1ccc(CCCc2noc([C@@H]3CCCCN3S(=O)(=O)C3CCCCC3)n2)cc1 [Compound 30B]
10 to 50	O=C(NCc1noc([C@@H]2CCCN2S(=O)(=O)C2CCCCC2)n1)c1cccc2ccccc12 [Compound 11B, 3-[(1-naphthoylamino)methyl]-5-[(2S)-1-cyclohexylsulfonylpyrrolidin-2-yl]-1,2,4-oxadiazole]
10 to 50	CC(C)CS(=O)(=O)N1[C@@H]2CC[C@@H](C2)[C@H]1c1nc(CCc2ccccc2)no1 [Compound 14A, 5-((1R,3S,4S)-2-(isobutylsulfonyl)-2-azabicyclo[2.2.1]heptan-3-yl)-3-phenethyl-1,2,4-oxadiazole]
10 to 50	O=S(=O)(N1CCOCC1)N1CC(CC2CCC2)CC1c1nc(CCCc2ccccc2)no1 (stereo not drawn) [Compound 6AE, 4-((4-(cyclobuthylmethyl)-2-(3-(3-phenylpropyl)-1,2,4-oxadiazole-5-yl)pyrrolidin-1-yyl)sulfonyl)morpholine]
10 to 50	COC(=O)c1nc([C@@H]2CCCCN2S(=O)(=O)C2CCCCC2)[nH]c1C [Compound 38B, Methyl (S)-2-(1-(cyclohexylsulfonyl)piperidin-2-yl)-5-methyl-1H-Imidazole-4-carboxylate]
< 10	O=S(=O)(C1CCCCC1)N1CC(CC2CCC2)CC1c1nc(CCCc2ccccc2)no1 (stereo not drawn) [Compound 6B, 3-(3-phenylpropyl)-5-(1-cyclohexylsulfonyl-4-cyclobutylmethylpyrrolidin-2-yl)-1,2,4-oxadiazole]
10 to 50	O=S(=O)(N1CCCCC1)N1C[C@H](c2ccccc2)C[C@H]1c1nc(CCCc2ccccc2)no1 [Compound 7AD]
< 10	CN(C)c1ccc(S(=O)(=O)N2C[C@H](F)C[C@H]2c2nc(CCCc3ccccc3)no2)cc1 [Compound 8AK, 4-(((2S,4R)-4-fluoro-2-(3-(3-phenylpropyl)-1,2,4-oxadiazole-5-yl)pyrrolidin-1-yl)sulfonyl)-N,N-dimethylaniline]
10 to 50	CC(C)CS(=O)(=O)N1[C@@H]2CC[C@@H](C2)[C@H]1c1nnc(CCc2ccncc2)[nH]1 [Compound 25A, (1R,3S,4S)-2-(isobutylsulfonyl)-3-(5-(2-(pyridin-4-yl)ethyl)-4H-1,2,4-triazol-3-yl)-2-azabicyclo[2.2.1]heptane]

Same assay, conditions: Vero, 72 h, read-out: Anti-RS virus Activity

SMILES	IC50 [µM]
S=C(Nc1ccccc1)N1C[C@H](c2ccccc2)C[C@H]1c1nc(CCCc2ccccc2)no1 [Compound 7AQ, (2S,4S)—N,4-di phenyl-2-(3-(3-phenylpropyl)-1,2,4-oxadiazol-5-yl) pyrrolidine-1-carbothioamide]	10 to 50
S=C(NCc1ccccc1)N1C[C@H](c2ccccc2)C[C@H]1c1nc(CCCc2ccccc2)no1 [Compound 7AR, (2S,4S)—N-Benzyl-4-phenyl-2-(3-(3-phenylpropyl)-1,2,4-oxadiazol-5-yl) pyrrolidine-1-carbothioamide]	10 to 50
O=S(=O)(N1CCCCC1)N1CCCC[C@H]1c1nc(CCCc2ccccc2)no1 [Compound 2AD, (S)-3-(3-phenylpropyl)-5-(1-(piperidine-1-ylsulfonyl)piperidin-2-yl)-1,2,4-oxadiazole]	< 10

Reference: patent publication US20240327392A1, “HETEROCYCLOALKYL-SUBSTITUTED POLYHETEROAZOLE DERIVATIVES AS MEDICAMENTS FOR TREATING AND/OR PREVENTING RS VIRUS INFECTIONS” (ALBIUS SCIENCES ALPHA PRIVATE LIMITED, priority 2021, published 2024)
